Experimental data reported in patent publication US6448229B2, “Gamma secretase inhibitors” (Merck Sharp & Dohme Ltd., priority 2000, dated 2002).

System: Notch signalling
Experiment: Xenopus developmental assay for Notch activity (tail bud formation)
Assay type: in vivo, Xenopus laevis
Conditions: Xenopus embryos cultured with compound from stage 15 to stage 40
Description: The following assay was used to determine the effect of compounds on Notch signalling.
Xenopus embryos were cultured in 1/10 NAM [Beck & Slack, Development, 126, 1611-1620, 1999] supplemented with protease inhibitors ([…] stock in DMSO) from stage 15 [P. D. Nieuwkoop and J. Faber, Normal table of Xenopus laevis, Daudin 1967, Reprinted Garland 1994] (24 hours), to stage 40 (3 days). Control siblings were incubated in 1/10 NAM containing 0.05% DMSO. At 3 days they were fixed in batches of 20 and measured using a graduated eyepiece on a Wild dissecting microscope set to 25×. Each tadpole was measured from head to proctodaeum (head and trunk) and from proctodaeum to tail tip (tail). Tail buds were extirpated at stage 30 and cultured for 24 hours as described previously [Tucker & Slack, Development, 121, 249-262, 1995]. Somites were detected by staining with monoclonal antibody 12/101 [Kintner & Brockes, Nature, 308, 67-69, 1984], as described elsewhere [Tucker & Slack, 1995]. In situ hybridisation for Xhox3 has been previously described [Beck & Slack, Mech. Dev., 72, 41-52, 1998].

CC(NC(=O)Cc1cc(F)cc(F)c1)C(=O)NC(C(=O)NCC1CN(c2ccccc2)CCO1)c1ccccc1 (mixture of isomers) [Example 1, 2-[2-(3,5-Difluorophenyl)acetylamino]-N-{phenyl[(4-phenylmorpholin-2-ylmethyl)carbamoyl]methyl}propionamide]
inhibition of tail bud formation: did not significantly inhibit tail bud formation
